{"source": "patent US20230049952A1", "about": "“METHODS AND COMPOUNDS FOR RESTORING MUTANT P53 FUNCTION” (PMV Pharmaceuticals, Inc., priority 2020, published 2023)", "test_system": "p53 signaling pathway in MT373 tumors", "experiment": "MT373 syngeneic sarcoma model: mouse p53 signaling pathway profiling panel", "assay_type": "in vivo"}
{"smiles": "CCn1c(C#CCNc2ccccc2)cc2cc(CNC3CCN(C)CC3)ccc21", "note": "[Compound 1, 1-Anilino-3-{1-ethyl-5-[(1-methyl-4-piperidylamino)methyl]-1H-indol-2-yl}-2-propyne]", "values": [{"measurement": "Sirt1 fold increase or percent reduction vs vehicle control", "setting": "150 mg/kg BIDx1, 48 h", "value": "13.36 fold or %"}, {"measurement": "Stat1 fold increase or percent reduction vs vehicle control", "setting": "150 mg/kg BIDx1, 48 h", "value": "1.72 fold or %"}, {"measurement": "Tnf fold increase or percent reduction vs vehicle control", "setting": "150 mg/kg BIDx1, 48 h", "value": "27.80 fold or %"}, {"measurement": "Traf1 fold increase or percent reduction vs vehicle control", "setting": "150 mg/kg BIDx1, 48 h", "value": "1.04 fold or %"}, {"measurement": "Trp53bp2 fold increase or percent reduction vs vehicle control", "setting": "150 mg/kg BIDx1, 48 h", "value": "8.14 fold or %"}, {"measurement": "Trp53 fold increase or percent reduction vs vehicle control", "setting": "150 mg/kg BIDx1, 48 h", "value": "22.40 fold or %"}, {"measurement": "Apex1 fold increase or percent reduction vs vehicle control", "setting": "150 mg/kg BIDx1, 72 h", "value": "15.68 fold or %"}, {"measurement": "Atm fold increase or percent reduction vs vehicle control", "setting": "150 mg/kg BIDx1, 72 h", "value": "18.10 fold or %"}, {"measurement": "Atr fold increase or percent reduction vs vehicle control", "setting": "150 mg/kg BIDx1, 72 h", "value": "1.15 fold or %"}, {"measurement": "Bag1 fold increase or percent reduction vs vehicle control", "setting": "150 mg/kg BIDx1, 72 h", "value": "21.87 fold or %"}, {"measurement": "Bax fold increase or percent reduction vs vehicle control", "setting": "150 mg/kg BIDx1, 72 h", "value": "21.38 fold or %"}, {"measurement": "Bbc3 fold increase or percent reduction vs vehicle control", "setting": "150 mg/kg BIDx1, 72 h", "value": "1.10 fold or %"}, {"measurement": "Bcl2 fold increase or percent reduction vs vehicle control", "setting": "150 mg/kg BIDx1, 72 h", "value": "6.74 fold or %"}, {"measurement": "Bid fold increase or percent reduction vs vehicle control", "setting": "150 mg/kg BIDx1, 72 h", "value": "2.75 fold or %"}, {"measurement": "Birc5 fold increase or percent reduction vs vehicle control", "setting": "150 mg/kg BIDx1, 72 h", "value": "24.85 fold or %"}, {"measurement": "Brca1 fold increase or percent reduction vs vehicle control", "setting": "150 mg/kg BIDx1, 72 h", "value": "17.44 fold or %"}, {"measurement": "Brca2 fold increase or percent reduction vs vehicle control", "setting": "150 mg/kg BIDx1, 72 h", "value": "19.53 fold or %"}, {"measurement": "Btg2 fold increase or percent reduction vs vehicle control", "setting": "150 mg/kg BIDx1, 72 h", "value": "23.10 fold or %"}, {"measurement": "Casp2 fold increase or percent reduction vs vehicle control", "setting": "150 mg/kg BIDx1, 72 h", "value": "8.98 fold or %"}, {"measurement": "Ccnb1 fold increase or percent reduction vs vehicle control", "setting": "150 mg/kg BIDx1, 72 h", "value": "18.77 fold or %"}, {"measurement": "Ccne1 fold increase or percent reduction vs vehicle control", "setting": "150 mg/kg BIDx1, 72 h", "value": "1.04 fold or %"}, {"measurement": "Ccng1 fold increase or percent reduction vs vehicle control", "setting": "150 mg/kg BIDx1, 72 h", "value": "11.26 fold or %"}, {"measurement": "Ccnh fold increase or percent reduction vs vehicle control", "setting": "150 mg/kg BIDx1, 72 h", "value": "5.78 fold or %"}, {"measurement": "Cdc25a fold increase or percent reduction vs vehicle control", "setting": "150 mg/kg BIDx1, 72 h", "value": "1.65 fold or %"}, {"measurement": "Cdk1 fold increase or percent reduction vs vehicle control", "setting": "150 mg/kg BIDx1, 72 h", "value": "22.76 fold or %"}, {"measurement": "Cdk4 fold increase or percent reduction vs vehicle control", "setting": "150 mg/kg BIDx1, 72 h", "value": "19.73 fold or %"}, {"measurement": "Cdkn1a fold increase or percent reduction vs vehicle control", "setting": "150 mg/kg BIDx1, 72 h", "value": "13.49 fold or %"}, {"measurement": "Cdkn2a fold increase or percent reduction vs vehicle control", "setting": "150 mg/kg BIDx1, 72 h", "value": "20.75 fold or %"}, {"measurement": "Chek1 fold increase or percent reduction vs vehicle control", "setting": "150 mg/kg BIDx1, 72 h", "value": "17.70 fold or %"}, {"measurement": "Cradd fold increase or percent reduction vs vehicle control", "setting": "150 mg/kg BIDx1, 72 h", "value": "16.72 fold or %"}, {"measurement": "Cul9 fold increase or percent reduction vs vehicle control", "setting": "150 mg/kg BIDx1, 72 h", "value": "1.54 fold or %"}, {"measurement": "Dapk1 fold increase or percent reduction vs vehicle control", "setting": "150 mg/kg BIDx1, 72 h", "value": "1.39 fold or %"}, {"measurement": "Dnmt1 fold increase or percent reduction vs vehicle control", "setting": "150 mg/kg BIDx1, 72 h", "value": "1.03 fold or %"}, {"measurement": "E2f1 fold increase or percent reduction vs vehicle control", "setting": "150 mg/kg BIDx1, 72 h", "value": "1.10 fold or %"}, {"measurement": "E2f3 fold increase or percent reduction vs vehicle control", "setting": "150 mg/kg BIDx1, 72 h", "value": "17.09 fold or %"}, {"measurement": "Egfr fold increase or percent reduction vs vehicle control", "setting": "150 mg/kg BIDx1, 72 h", "value": "13.15 fold or %"}, {"measurement": "Egr1 fold increase or percent reduction vs vehicle control", "setting": "150 mg/kg BIDx1, 72 h", "value": "38.21 fold or %"}, {"measurement": "Ep300 fold increase or percent reduction vs vehicle control", "setting": "150 mg/kg BIDx1, 72 h", "value": "2.74 fold or %"}, {"measurement": "Ercc1 fold increase or percent reduction vs vehicle control", "setting": "150 mg/kg BIDx1, 72 h", "value": "20.27 fold or %"}, {"measurement": "Esr1 fold increase or percent reduction vs vehicle control", "setting": "150 mg/kg BIDx1, 72 h", "value": "1.82 fold or %"}, {"measurement": "Fadd fold increase or percent reduction vs vehicle control", "setting": "150 mg/kg BIDx1, 72 h", "value": "1.18 fold or %"}, {"measurement": "Fas fold increase or percent reduction vs vehicle control", "setting": "150 mg/kg BIDx1, 72 h", "value": "12.10 fold or %"}, {"measurement": "Fasl fold increase or percent reduction vs vehicle control", "setting": "150 mg/kg BIDx1, 72 h", "value": "1.29 fold or %"}, {"measurement": "Foxo3 fold increase or percent reduction vs vehicle control", "setting": "150 mg/kg BIDx1, 72 h", "value": "1.08 fold or %"}, {"measurement": "Gadd45a fold increase or percent reduction vs vehicle control", "setting": "150 mg/kg BIDx1, 72 h", "value": "12.31 fold or %"}, {"measurement": "Hif1a fold increase or percent reduction vs vehicle control", "setting": "150 mg/kg BIDx1, 72 h", "value": "1.18 fold or %"}, {"measurement": "Il6 fold increase or percent reduction vs vehicle control", "setting": "150 mg/kg BIDx1, 72 h", "value": "61.14 fold or %"}, {"measurement": "Jun fold increase or percent reduction vs vehicle control", "setting": "150 mg/kg BIDx1, 72 h", "value": "20.41 fold or %"}, {"measurement": "Kras fold increase or percent reduction vs vehicle control", "setting": "150 mg/kg BIDx1, 72 h", "value": "1.08 fold or %"}, {"measurement": "Lig4 fold increase or percent reduction vs vehicle control", "setting": "150 mg/kg BIDx1, 72 h", "value": "1.27 fold or %"}, {"measurement": "Mdm2 fold increase or percent reduction vs vehicle control", "setting": "150 mg/kg BIDx1, 72 h", "value": "1.10 fold or %"}, {"measurement": "Mdm4 fold increase or percent reduction vs vehicle control", "setting": "150 mg/kg BIDx1, 72 h", "value": "13.89 fold or %"}, {"measurement": "Mel1 fold increase or percent reduction vs vehicle control", "setting": "150 mg/kg BIDx1, 72 h", "value": "17.68 fold or %"}, {"measurement": "Mlh1 fold increase or percent reduction vs vehicle control", "setting": "150 mg/kg BIDx1, 72 h", "value": "1.52 fold or %"}, {"measurement": "Msh2 fold increase or percent reduction vs vehicle control", "setting": "150 mg/kg BIDx1, 72 h", "value": "4.98 fold or %"}, {"measurement": "Myod1 fold increase or percent reduction vs vehicle control", "setting": "150 mg/kg BIDx1, 72 h", "value": "3.03 fold or %"}, {"measurement": "Nf1 fold increase or percent reduction vs vehicle control", "setting": "150 mg/kg BIDx1, 72 h", "value": "12.40 fold or %"}, {"measurement": "Nfkb1 fold increase or percent reduction vs vehicle control", "setting": "150 mg/kg BIDx1, 72 h", "value": "1.15 fold or %"}, {"measurement": "Pcna fold increase or percent reduction vs vehicle control", "setting": "150 mg/kg BIDx1, 72 h", "value": "21.44 fold or %"}, {"measurement": "Pmaip1 fold increase or percent reduction vs vehicle control", "setting": "150 mg/kg BIDx1, 72 h", "value": "1.41 fold or %"}, {"measurement": "Ppm1d fold increase or percent reduction vs vehicle control", "setting": "150 mg/kg BIDx1, 72 h", "value": "0.20 fold or %"}, {"measurement": "Prkca fold increase or percent reduction vs vehicle control", "setting": "150 mg/kg BIDx1, 72 h", "value": "4.15 fold or %"}, {"measurement": "Pten fold increase or percent reduction vs vehicle control", "setting": "150 mg/kg BIDx1, 72 h", "value": "1.14 fold or %"}, {"measurement": "Pttg1 fold increase or percent reduction vs vehicle control", "setting": "150 mg/kg BIDx1, 72 h", "value": "1.19 fold or %"}, {"measurement": "Rb1 fold increase or percent reduction vs vehicle control", "setting": "150 mg/kg BIDx1, 72 h", "value": "3.47 fold or %"}, {"measurement": "Rela fold increase or percent reduction vs vehicle control", "setting": "150 mg/kg BIDx1, 72 h", "value": "2.50 fold or %"}, {"measurement": "Rprm fold increase or percent reduction vs vehicle control", "setting": "150 mg/kg BIDx1, 72 h", "value": "1.51 fold or %"}, {"measurement": "Serpinb5 fold increase or percent reduction vs vehicle control", "setting": "150 mg/kg BIDx1, 72 h", "value": "1.00 fold or %"}, {"measurement": "Sesn2 fold increase or percent reduction vs vehicle control", "setting": "150 mg/kg BIDx1, 72 h", "value": "1.31 fold or %"}, {"measurement": "Sfn fold increase or percent reduction vs vehicle control", "setting": "150 mg/kg BIDx1, 72 h", "value": "7.33 fold or %"}, {"measurement": "Sirt1 fold increase or percent reduction vs vehicle control", "setting": "150 mg/kg BIDx1, 72 h", "value": "1.08 fold or %"}, {"measurement": "Stat1 fold increase or percent reduction vs vehicle control", "setting": "150 mg/kg BIDx1, 72 h", "value": "1.78 fold or %"}, {"measurement": "Tnf fold increase or percent reduction vs vehicle control", "setting": "150 mg/kg BIDx1, 72 h", "value": "1.15 fold or %"}, {"measurement": "Traf1 fold increase or percent reduction vs vehicle control", "setting": "150 mg/kg BIDx1, 72 h", "value": "1.41 fold or %"}, {"measurement": "Trp53bp2 fold increase or percent reduction vs vehicle control", "setting": "150 mg/kg BIDx1, 72 h", "value": "1.07 fold or %"}, {"measurement": "Trp53 fold increase or percent reduction vs vehicle control", "setting": "150 mg/kg BIDx1, 72 h", "value": "1.21 fold or %"}, {"measurement": "Bbc3 mRNA increase", "setting": "150 mg/kg BID×1, 24 h", "value": 2.27, "unit": "fold"}, {"measurement": "Birc5 mRNA decrease", "setting": "150 mg/kg BID×1, 24 h", "value": 53.57, "unit": "%"}, {"measurement": "Ccng1 mRNA increase", "setting": "150 mg/kg BID×1, 24 h", "value": 6.84, "unit": "fold"}, {"measurement": "Cdc25c mRNA decrease", "setting": "150 mg/kg BID×1, 24 h", "value": 41.75, "unit": "%"}, {"measurement": "Cdk1 mRNA decrease", "setting": "150 mg/kg BID×1, 24 h", "value": 64.58, "unit": "%"}, {"measurement": "Cdkn1a mRNA increase", "setting": "150 mg/kg BID×1, 24 h", "value": 10.93, "unit": "fold"}, {"measurement": "Chek1 mRNA decrease", "setting": "150 mg/kg BID×1, 24 h", "value": 58.77, "unit": "%"}, {"measurement": "Egfr mRNA change", "setting": "150 mg/kg BID×1, 24 h", "value": 47.37, "unit": "%"}]}
